Laboratory results taken from ChEMBL document CHEMBL5335832, “Cavomycins A-C, Linear Oligomer Depsipeptides from an Annelid-Associated Streptomyces cavourensis” (J Nat Prod, 2024).
Calls of active or inactive are those of the source. The rule behind the calls is not given here.

How the values were obtained:
PANC-1 [1] = experiment: Antiproliferative activity against human PANC-1 cells assessed as inhibition of cell growth incubated for 72 hrs by MTT assay; type: functional, cell-based; conditions: PANC-1, 72 h
PANC-1 [2] = experiment: Antiproliferative activity against human PANC-1 cells assessed as inhibition of cell growth at 20 to 100 uM incubated for 72 hrs by MTT assay; type: functional, cell-based; conditions: dose 20-100 µM

IC50 (PANC-1 [1]) [µM]	SMILES	Activity (PANC-1 [2])
1.7	COC(=O)[C@H](NC(=O)[C@H](OC(=O)[C@@H](NC(=O)[C@H](C)OC(=O)[C@H](NC(=O)[C@H](OC(=O)[C@@H](NC(=O)[C@H](C)OC(=O)[C@H](NC(=O)[C@H](OC(=O)[C@@H](NC(=O)[C@H](C)O)C(C)C)C(C)C)C(C)C)C(C)C)C(C)C)C(C)C)C(C)C)C(C)C)C(C)C	
	CC(C)[C@H](NC(=O)[C@H](C)OC(=O)[C@H](NC(=O)[C@H](OC(=O)[C@@H](NC(=O)[C@H](C)OC(=O)[C@H](NC(=O)[C@H](OC(=O)[C@@H](NC(=O)[C@H](C)OC(=O)[C@@H](NC(=O)[C@H](C)O)C(C)C)C(C)C)C(C)C)C(C)C)C(C)C)C(C)C)C(C)C)C(=O)O	inactive
	CC(C)[C@H](NC(=O)[C@H](C)OC(=O)[C@H](NC(=O)[C@H](OC(=O)[C@@H](NC(=O)[C@H](C)OC(=O)[C@H](NC(=O)[C@H](OC(=O)[C@@H](NC(=O)[C@H](C)O)C(C)C)C(C)C)C(C)C)C(C)C)C(C)C)C(C)C)C(=O)O	inactive
1.2	CC(C)[C@H](NC(=O)[C@H](C)O)C(=O)O[C@@H](C(=O)N[C@@H](C(=O)O[C@@H](C)C(=O)N[C@H](C(=O)O[C@@H](C(=O)N[C@@H](C(=O)O[C@@H](C)C(=O)N[C@H](C(=O)O[C@@H](C(=O)N[C@@H](C(=O)O)C(C)C)C(C)C)C(C)C)C(C)C)C(C)C)C(C)C)C(C)C)C(C)C	
